Measured values from patent US20080234258A1, “Dihydroxyanthraquinones and Their Use” (priority 2005, published 2008).

Legend:
[1] = system: intra-plantar carrageenan induced paw oedema; assay: Carrageenan Paw Assay; type: in vivo; conditions: 0.3 to 30 mg/kg oral gavage, male Wistar rats, paw measured 1-5 hours after carrageenan
Procedure: Fasted (18 hour) male Wistar rats (105-130 g) were weighed and a basal mercury plethysmometer reading was taken of the right hind paw by submerging the paw in the mercury up to the tibiotarsal joint. Subsequently, vehicles, reference items and test articles were administered by oral gavage (10 ml/kg). 30 minutes after treatment, 0.1 ml of 2% carrageenan in 0.9% saline was injected into the subplanatar area of the right hind paw. The right paw was measured again with the plethysmometer, at 1, 2, 3, 4 and 5 hours after carrageenan administration.

IL-1β = assay: LPS Mouse Assay, IL-1β levels; type: in vivo; conditions: 3, 10 and 30 mg/kg oral, Balb C ByJ mice, 1 mg/kg LPS i.p., serum 2 hours after LPS
Procedure: (§1) 7 week old Balb C ByJ mice (24-28 g) were administered, either by oral (10 ml/kg) administration, with vehicle or test article. 30 minutes later, these animals were challenged with an intraperitoneal injection of 1 mg/kg LPS. 2 hours after LPS challenge, blood samples were collected under light isoflurane anaesthesia into normal tubes by retro-orbital puncture. Samples were allowed to clot at room temperature and then spun at 6000 g for 3 min at 4° C. Serum was stored at −20° C. until use. Serum TNFα and IL-10 levels were analysed in duplicate by ELISA technique.

[2] = system: LPS-induced TNFα secretion; assay: LPS Mouse Assay, serum TNFα by ELISA; type: in vivo; conditions: Balb C ByJ mice, 1 mg/kg LPS i.p., serum 2 hours after LPS
Procedure: as §1

TIMP-1 = conditions: rabbit articular chondrocytes; cited from earlier work
[3] = system: pro-MMPs-1, -3, -9 and -13; conditions: rabbit articular chondrocytes; cited from earlier work
IL-1β and TNFα = conditions: human osteoarthritic synovium and chondrocytes; cited from earlier work
cytokine gene expression = conditions: model of lupus nephritis; cited from earlier work

| Compound | effect in carrageenan induced paw oedema model of inflammation [1] | effect on LPS-induced TNFα secretion ([2]; 30 mg/kg oral) | production of tissue inhibitor of metalloproteinases (TIMP-1) (TIMP-1) | production of pro-matrix metalloproteinases (pro-MMPs-1, -3, -9 and -13) [3] | also measured |
| --- | --- | --- | --- | --- | --- |
| O=C1c2cccc(OC(=O)C3CCOCC3)c2C(=O)c2c(OC(=O)C3CCOCC3)cc(C(=O)N3CCOCC3)cc21 [Example 1, 1,8-bis(tetrahydropyran-4-carbonyloxy)-3-(morpholine-4-carbonyl)-9,10-dioxo-9,10-dihydroanthracene] | dose-dependant effect | produced an effect | – | – | IL-1β levels from LPS stimulus (IL-1β): reduced IL-1β levels |
| CCNC(=O)c1cc(OC(=O)C2CCOCC2)c2c(c1)C(=O)c1cccc(OC(=O)C3CCOCC3)c1C2=O [Example 2, 1,8-bis(tetrahydropyran-4-carbonyloxy)-3-ethylcarbamoyl-9,10-dioxo-9,10-dihydroanthracene] | – | – | – | – | effect on LPS-induced TNFα secretion ([2]; 10 mg/kg oral): inhibited |
| COCCOC(=O)c1cc(OC(=O)C2CCOCC2)c2c(c1)C(=O)c1cccc(OC(=O)C3CCOCC3)c1C2=O [Example 3, 4,5-bis(tetrahydropyran-4-carbonyloxy)-9,10-dioxo-9,10-dihydroanthracene-2-carboxylic acid, 2-methoxyethyl ester] | – | produced an effect | – | – | – |
| CCOC(=O)c1cc(OC(=O)C2CCOCC2)c2c(c1)C(=O)c1cccc(OC(=O)C3CCOCC3)c1C2=O [Example 4, 4,5-bis(tetrahydropyran-4-carbonyloxy)-9,10-dioxo-9,10-dihydroanthracene-2-carboxylic acid, ethyl ester] | dose-dependant effect | – | – | – | – |
| CC(=O)Oc1cccc2c1C(=O)c1c(OC(C)=O)cc(C(=O)O)cc1C2=O [diacerein] | – | – | upregulating | down-regulate | – |
| O=C(O)c1cc(O)c2c(c1)C(=O)c1cccc(O)c1C2=O [rhein, 1,8-dihydroxyanthraquinone-3-carboxylic acid] | – | – | upregulating | down-regulate | production of pro-inflammatory cytokines (IL-1β and TNFα) (IL-1β and TNFα): inhibit; cytokine gene expression (cytokine gene expression): inhibit |
